Data from patent publication US9404140B1, “Patterned cardiomyocyte culture on microelectrode array” (The University of Central Florida Research Foundation, Inc., priority 2009, dated 2016).
Entries after “also recorded” stand apart in the source; their conditions may differ.

System: patterned neonatal rat cardiomyocytes
Assay: Multielectrode extracellular recordings from patterned spontaneously beating cardiomyocytes on MEAs (drug effect)
Type: cell-based
Experimental: MEAs containing 60, 10 μm diameter electrodes (Multichannel Systems, Germany) were cleaned by soaking the arrays in a detergent solution for 2 hours followed by sonication for 10 minutes. The arrays were then oxygen plasma cleaned for 20 minutes. Surface modification was completed by incubation of the MEAs in a 3 mM PEG silane, 2-[Methoxypoly(ethyleneoxy)propyl]trimethoxysilane (MW=460-590, Gelest), solution in toluene, with 37% concentrated HCL added to achieve a final value of 0.08% (0.8 ml HCL/L), for 45 minutes at room temperature. The arrays were then rinsed once in toluene, twice in ethanol, twice in water and sonicated in water for 2 minutes to remove the non-covalently linked material. The arrays were air dried with nitrogen and stored in a dessicator overnight.
The MEAs were patterned by laser ablation photolithography using a deep UV (193 nm) excimer laser (Lambda Physik) at a pulse power of 230 mW and a frequency of 10 Hz for 45 seconds through a quartz photomask (Bandwidth foundry, Eveleigh, Australia). The arrays were sterilized using 70% isopropanol and then incubated with 5 μg/ml of fibronectin in a Phosphate buffered solution (Invitrogen) for 20 minutes at room temperature. The solution was removed and the surface was first rinsed with PBS, followed by the plating medium, and then dried before the cells were plated.
The neonatal rat cardiomyocyte culture was prepared using the cardiac isolation kit from Worthington[40]. All animal work was approved by the UCF IACUC and followed NIH guidelines. Briefly, two day-old rat pups were euthanized in a precharged CO2 chamber. Hearts were dissected and minced in ice cold Hanks balanced salt solution (HBSS). Cardiac myocytes were dissociated by incubation of the hearts in trypsin (100 μg/ml in HBSS) for 16 hours at 2-8° C. The hearts in the trypsin solution were briefly warmed with a trypsin inhibitor before adding collegenase (300 units/ml in L-15 medium) for 45 minutes in a water bath at 37° C. followed by mechanical trituration. The cell solution was filtered to remove any remaining tissue and centrifuged at 50 g for 5 minutes at 22° C. The cells were resuspended in high glucose Dulbecco's modified eagle medium (DMEM, Gibco/Invitrogen) supplemented with 10 ml Fetal Bovine Serum (Gibco/Invitrogen) and 1 ml penicillin streptomycin (Gibco/Invitrogen), preplated in Petri dishes and incubated at 37° C. and in 5% CO2 for 45 minutes. This was necessary to eliminate the fibroblasts. The supernatant from the Petri dishes was centrifuged at 50 g for 5 min at 22° C. The cells were then resuspended in the plating medium. The serum-free plating medium consisted of: 100 ml Ultraculture medium (Bio Whittaker Cambrex) supplemented with 10 ml B27, 1 ml L-glutamine (Gibco/Invitrogen), 1 ml Penicillin Streptomycin, 0.375 g dextrose (Fisher Scientific) in 800 μl water, 1 ml non-essential amino acids and 1 ml of Hepes buffer (Gibco/Invitrogen)[41]. Additional growth factors were also added to improve cell survival in the serum-free conditions. They included 0.1 μg/ml of L-thyroxine, 10 ng/ml of Epidermal growth factor (Sigma-aldrich) and 0.5 μg/ml of Hydrocortisone (BD biosciences). Cells were plated at a density of 1000 cells/mm^2 on the MEAs. The medium was changed 24 hours after plating. Subsequent changing of the medium was performed every third day.
The cardiac myocytes were cultured on patterned metal MEAs (Planar 10 μm electrodes, 200 μm separation, Multichannel-systems). A 60 channel amplifier (MEA1040, Multichannel-systems) was used to record electrical activity from the spontaneously beating cardiac cells. The same electrodes were also used for stimulation utilizing a stimulus generator (STG 1002, Multichannel systems). The cells were stimulated utilizing 500 mV, 1 ms wide bipolar pulses at 2 Hz. The recording medium was the same as the plating medium with the pH adjusted to 7.3 using HEPES buffer. […]

[1] = 2 μM Sparfloxacin in recording medium

Row | Field potential (FP) length [1] | Time to significant change in the spontaneous beating frequency [1] | Compound | Beating pattern, synchrony and conduction (in words) [1] | Conduction velocity (CV) (50 μM 1-Heptanol in recording medium, spontaneously beating cells, n=4 MEAs, before treatment 0.197±0.014 m/s) | Time for propagation of the excitation wave versus value before treatment (50 μM 1-Heptanol, FPs recorded at 15 minute intervals) | Effect on CV in the cardiac myocyte monolayers (in words) (1-Heptanol, 50 μM) | Synchronicity of the beating cells (1-Heptanol, 50 μM) | Conduction velocity (CV), propagation of excitation after the drug (1-Heptanol, between electrodes 84 and 52 of the pattern, before drug 0.197 m/sec, FIG. 5)
1 | increased FP length | ≤ 25 min | C[C@@H]1CN(c2c(F)c(N)c3c(=O)c(C(=O)O)cn(C4CC4)c3c2F)C[C@H](C)N1 [Sparfloxacin] | burst like activity with higher intra-burst frequencies and no synchrony between electrodes; also recorded: non-synchronous contractions similar to fibrillation and burst-like beating activity; also recorded: caused fibrillations which initiated a complete conduction block | – | – | – | – | –
2 | – | – | CCCCCCCO [1-Heptanol] | – | 0.0066±0.0004 m/s | significantly increased | drastically decreased the CV in the cardiac myocyte monolayers without completely blocking the conduction | maintaining the synchronicity of the beating cells | 0.0066 m/sec
